From US7262183B2, “Substituted 5-membered n-heterocyclic compounds and their uses for treating or preventing neurodegenerative diseases” (Instititute of Pharmacology and Toxicology, priority 2001, dated 2007)

Experiments:
[1] = test system: chick embryos dorsal root ganglia; test: chick embryos dorsal root ganglion cultures free of serum, neurite process growth; type: cell-based; settings: for Average scoring: 48 h, neurite score 0-3, average of 10 ganglia, control (NGF only) 0.33
Description: The neurotrophic activity of compounds of the present invention can be determined through several biological models in vitro, e.g. the model of chick embryos dorsal root ganglion cultures free of serum in vitro.
In a sterile environment, dorsal root ganglia were dissected from chick embryos of 8 days gestation and inoculated in rat rail collagen coated culture bottles (5 to 6 dorsal root ganglia per bottle, and two bottles per dosage). After 1 hour of attachment in a 37° C., 5% CO2 incubator, NGF (0.15 ng/ml) containing culture medium free of serum (DMEM) and the compound of the present invention were added. The control groups were treated only with the same amount of NGF and culture medium. […] Five to six DRGs were cultured per bottle, and each treatment was performed in duplicate. The results of illustrative compound of example 15 promoting the growth of chick embryos dorsal root ganglia processes were outlined in table 1, wherein the scoring is the average scoring of 10 ganglia.
FIG. 1 indicates the growth of neurites of chick dorsal root ganglia under various dosages of the compound of example 15. A represents that chick embryos dorsal root ganglia with rare processes is caused by the treatment of sole NGF (0.15 ng/mL).

[2] = test system: adult mice sympathetic nerve endings damaged by 6-hydroxy-dopamine (6-OHDA); test: adult mice sympathetic nerve endings damaged by 6-OHDA, residual noradrenaline in submaxillary glands; type: in vivo; settings: 10 mg/kg subcutaneous injection; 6-OHDA 8 mg/kg intraperitoneal; measured two weeks after last administration, HPLC-electrochemical detector
Description: The neurotrophic activity of the compounds of the present invention can also be determined in several animal pharmacological models in vivo, such as the model of adult mice sympathetic nerve endings damaged by 6-hydroxy-dopamine (6-OHDA).
Kunming species female mice (□) having a body weight of 18-22 g are randomly divided into the following groups: normal control group, model control group, FK506 (2 mg/kg) group, and the group of compound of the present invention (10 mg/kg) (10 mice per group). The mice are administrated with 6-OHDA (8 mg/kg) by intraperitoneal injection before 4 hours and after 4 continuous days of subcutaneous injection of the compound, while the control groups are administrated with the equivalent quantity of carrier by subcutaneous injection. After two weeks of the last administration, the mice are killed by luxation, and the two submaxillary glands of each of the mice are rapidly excised and weighed, placed in a glass grinder, then is homogenated with a homogenating liquid containing internal-standard, and centrifuged at 2000 g for 30 minutes. 20 μL of the obtained supernatant is directly injected in an HPLC-electrochemical detector to measure the content of noradrenaline (NE) in the submaxillary glands of the mice. […]

## CC(C)(C)C(=O)C(=O)N1CSC(C)(C)[C@@H]1C(=O)OCCCc1cccnc1 [Example 15, 3-(3-pyridyl)-1-propyl (2S)-5,5-dimethyl-1-(3,3-dimethyl-1,2-dioxobutyl)-2-(4-thiazolidine)carboxylate]
[1]; 1 pM compound + NGF (0.15 ng/mL) in DMEM
  Average scoring: 1.00
[1]; 1 pM compound + NGF (0.15 ng/mL), FIG. 1 B
  growth of neurites of chick dorsal root ganglia (FIG. 1): enhances the improving effect of sole NGF (0.15 ng/mL) on the growth of neurites
[1]; 10 pM compound + NGF (0.15 ng/mL) in DMEM
  Average scoring: 1.31
[1]; 10 pM compound + NGF (0.15 ng/mL), FIG. 1 C, compared with 1 pM
  growth of neurites of chick dorsal root ganglia (FIG. 1): stronger effect on the growth of neurites
[1]; 100 pM compound + NGF (0.15 ng/mL) in DMEM
  Average scoring: 1.57
[1]; 100 pM compound + NGF (0.15 ng/mL), FIG. 1 D, compared with A, B and C
  growth of neurites of chick dorsal root ganglia (FIG. 1): strongest effect
[2]
  level of residual NE in the submaxillary glands of the mice (FIG. 2): raise the residual NE level

## CC(C)(C)C(=O)C(=O)N1CSC(C)(C)[C@@H]1C(=O)OCCCc1ccccc1 [Example 17, 3-phenyl-1-propyl (2S)-5,5-dimethyl-1-(3,3-dimethyl-1,2-dioxobutyl)-2-(4-thiazolidine)carboxylate]
[2]
  level of residual NE in the submaxillary glands of the mice (FIG. 2): raise the residual NE level
